From publication PMC7413254 (Nature Communications, 2020)
Values joined by “and” are separate entries in the source; they are usually repeats but may differ in a detail not shown here. Equal entries are not always repeated.

Key:
[1] = system: non-expressing oocytes; assay: cells; assay type: cell-based, Xenopus laevis
Method in brief: (§1)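 Using pH 5.5 ND96 at 27.5 °C, uptake is followed for 1.5 h, stopped with ice-cold buffer, and quantified as accumulated radioactivity per oocyte after SDS lysis.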

[2] = biological target: PfCRT^3D7 (Plasmodium falciparum, UniProt Q8IBZ9); assay: cell-based; assay type: cell-based
Sequence of PfCRT^3D7 (Q8IBZ9 59-398): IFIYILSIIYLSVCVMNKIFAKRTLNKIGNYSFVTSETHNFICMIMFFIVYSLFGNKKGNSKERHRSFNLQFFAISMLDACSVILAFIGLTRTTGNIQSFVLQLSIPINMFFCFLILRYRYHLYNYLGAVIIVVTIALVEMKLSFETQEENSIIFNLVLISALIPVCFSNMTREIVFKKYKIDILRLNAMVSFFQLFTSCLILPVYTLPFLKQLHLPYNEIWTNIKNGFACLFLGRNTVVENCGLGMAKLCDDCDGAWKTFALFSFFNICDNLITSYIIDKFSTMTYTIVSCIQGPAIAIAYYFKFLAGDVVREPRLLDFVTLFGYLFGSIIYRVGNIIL
Method in brief: as §1

[3] = biological target: PfCRT^Dd2 (Plasmodium falciparum, UniProt Q9N623, A220S/I356T/K76T/M74I/N326S/N75E/Q271E/R371I); assay: [3H]CQ uptake into Xenopus oocytes, cis-inhibition by unlabelled solute; assay type: cell-based; conditions: for PfCRT-mediated [3H]CQ transport, cis-inhibition (% PfCRTDd2 control): PfCRTDd2 oocytes, background [3H]CQ accumulation subtracted, normalised to oocyte type control; for Uptake of [3H]CQ (% PfCRTDd2 control), cis-inhibition, PfCRTDd2: total [3H]CQ transport, mean ± SEM, SEM
Sequence of PfCRT^Dd2 (Q9N623 whole entry A220S/I356T/K76T/M74I/N326S/N75E/Q271E/R371I): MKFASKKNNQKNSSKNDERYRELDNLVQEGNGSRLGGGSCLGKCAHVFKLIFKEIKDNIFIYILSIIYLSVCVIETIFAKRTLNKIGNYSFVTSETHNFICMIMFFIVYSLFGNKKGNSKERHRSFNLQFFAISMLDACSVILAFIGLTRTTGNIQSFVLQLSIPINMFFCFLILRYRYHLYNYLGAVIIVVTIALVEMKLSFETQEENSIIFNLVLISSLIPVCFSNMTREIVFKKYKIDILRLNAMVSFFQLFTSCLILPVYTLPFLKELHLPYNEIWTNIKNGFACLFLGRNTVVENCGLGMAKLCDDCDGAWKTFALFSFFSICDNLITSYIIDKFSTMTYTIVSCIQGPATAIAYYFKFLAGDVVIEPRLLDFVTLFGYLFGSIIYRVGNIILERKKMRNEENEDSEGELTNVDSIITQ
Method in brief: as §1

[4] = biological target: PfCRT^Ecu1110 (Plasmodium falciparum, UniProt Q9N623, A220S/I356L/K76T/N326D); assay: as above; assay type: cell-based; conditions: for Uptake of [3H]CQ (% PfCRTEcu1110 control), cis-inhibition / Uptake of [3H]CQ (% PfCRTDd2 control), cis-inhibition, PfCRTEcu1110: total [3H]CQ transport; for Uptake of [3H]CQ (% PfCRTEcu1110 control), cis-inhibition: normalised to the oocyte type control; for [3H]CQ transport (% PfCRTEcu1110 control), cis-inhibition, PfCRTEcu1110: PfCRT-mediated component (background subtracted), sheet title says normalised to PfCRTDd2 control; for [3H]CQ transport (% PfCRTEcu1110 control), cis-inhibition, PfCRTEcu1110 / Uptake of [3H]CQ (% PfCRTDd2 control), cis-inhibition, PfCRTEcu1110: mean ± SEM, SEM
Sequence of PfCRT^Ecu1110 (Q9N623 whole entry A220S/I356L/K76T/N326D): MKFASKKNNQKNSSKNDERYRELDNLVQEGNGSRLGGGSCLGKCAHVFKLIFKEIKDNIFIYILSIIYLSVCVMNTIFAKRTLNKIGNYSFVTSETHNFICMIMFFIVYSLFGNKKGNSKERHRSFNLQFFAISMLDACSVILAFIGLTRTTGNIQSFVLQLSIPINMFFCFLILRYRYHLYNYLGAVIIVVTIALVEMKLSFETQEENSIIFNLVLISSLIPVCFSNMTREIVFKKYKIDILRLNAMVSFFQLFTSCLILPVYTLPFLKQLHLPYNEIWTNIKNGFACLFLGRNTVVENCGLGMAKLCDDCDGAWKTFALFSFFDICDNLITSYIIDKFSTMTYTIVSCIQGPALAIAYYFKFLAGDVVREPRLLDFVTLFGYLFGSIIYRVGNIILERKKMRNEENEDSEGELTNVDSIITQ
Method in brief: as §1

[5] = system: non-expressing oocytes; assay type: cell-based, Xenopus laevis; conditions: SEM
Method in brief: (§2)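 Oocytes (ten per treatment, ≥4 independent frogs/days) were preloaded by injecting VF-6 in 25 nL ND96 at pH 5.0, 5.5, 6.0 or 7.0, or Na^+-free choline buffer, then uptake run 1.5 h, 27.5 °C, ND96 pH 5.5 by default. Internal concentrations assumed ~400 nL oocyte volume.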

[6] = biological target: T1, PfNT1 (Plasmodium falciparum, UniProt Q8IDM6); assay: cell-based; assay type: cell-based; conditions: SEM
T1 construct: expressed in transfected cells; host or cells: Xenopus laevis oocytes (stage V-VI), cRNA-injected
T1 sequence (Q8IDM6 whole entry): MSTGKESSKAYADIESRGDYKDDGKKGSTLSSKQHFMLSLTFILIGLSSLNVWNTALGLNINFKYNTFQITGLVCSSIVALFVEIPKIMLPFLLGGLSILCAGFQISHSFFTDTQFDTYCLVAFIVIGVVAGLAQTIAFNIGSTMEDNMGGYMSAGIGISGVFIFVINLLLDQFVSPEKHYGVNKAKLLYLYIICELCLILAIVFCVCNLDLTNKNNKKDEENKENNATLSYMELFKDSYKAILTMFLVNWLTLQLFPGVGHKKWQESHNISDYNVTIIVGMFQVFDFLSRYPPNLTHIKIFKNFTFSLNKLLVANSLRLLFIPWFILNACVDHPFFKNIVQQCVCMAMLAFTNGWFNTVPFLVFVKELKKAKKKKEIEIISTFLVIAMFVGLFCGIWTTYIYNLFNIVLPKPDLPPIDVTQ
Method in brief: as §2

[7] = system: PfCRT; assay: Influx of VF-6 via PfCRT into the oocyte, solutes tested as potential co-substrates; assay type: cell-based, Plasmodium falciparum; parameters: key: X: Compounds that have been tested as potential co-substrates but are not required for influx of VF-6 via PfCRT into the oocyte; conditions: X marks the solute
[8] = system: PfCRT; assay: Test of solutes as potential co-substrates for influx of VF-6 via PfCRT into the oocyte; assay type: cell-based, Plasmodium falciparum; parameters: key: X: Compounds that have been tested as potential co-substrates but are not required for influx of VF-6 via PfCRT into the oocyte; conditions: X = tested
[9] = system: PfCRT; assay: Potential co-substrates tested for influx of VF-6 via PfCRT into the oocyte; assay type: cell-based, Plasmodium falciparum; parameters: key: X: Compounds that have been tested as potential co-substrates but are not required for influx of VF-6 via PfCRT into the oocyte

SMILES: NCC(=O)O [L-glycine]
- Uptake of [3H]CQ (% non-expressing oocyte control), cis-inhibition [1]: 100 ± 4.6 % non-expressing oocyte control and 98 ± 7.4 % non-expressing oocyte control and 100 ± 3.5 % non-expressing oocyte control
- Uptake of [3H]CQ (% PfCRTDd2 control), cis-inhibition, non-expressing oocytes ([1]; SEM): 3.1 ± 0.09 % PfCRTDd2 control and 2.2 ± 0.03 % PfCRTDd2 control and 2.7 ± 0.03 % PfCRTDd2 control
- Uptake of [3H]CQ (% PfCRT3D7 control), cis-inhibition [2]: 100 ± 3.6 % PfCRT3D7 control and 100 ± 4.8 % PfCRT3D7 control
- Uptake of [3H]CQ (% PfCRTDd2 control), cis-inhibition, PfCRT3D7 ([2]; SEM): 3.6 ± 0.07 % PfCRTDd2 control and 2.1 ± 0.01 % PfCRTDd2 control and 2.9 ± 0.04 % PfCRTDd2 control
- PfCRT-mediated [3H]CQ transport, cis-inhibition (% PfCRTDd2 control) ([3]; [test solute] = 1 mM): 94 ± 3.7 % PfCRTDd2 control
- PfCRT-mediated [3H]CQ transport, cis-inhibition (% PfCRTDd2 control) ([3]; [test solute] = 2 mM): 93 ± 3.1 % PfCRTDd2 control
- Uptake of [3H]CQ (% PfCRTDd2 control), cis-inhibition, PfCRTDd2 ([3]; [test solute] = 0.5 mM): 97 ± 3.3 % PfCRTDd2 control
- Uptake of [3H]CQ (% PfCRTDd2 control), cis-inhibition, PfCRTDd2 ([3]; [test solute] = 2 mM): 95 ± 3.6 % PfCRTDd2 control
- Uptake of [3H]CQ (% PfCRTEcu1110 control), cis-inhibition ([4]; PfCRTEcu1110 oocytes, [test solute] = 0.5 mM): 95 ± 4.2 % PfCRTEcu1110 control
- Uptake of [3H]CQ (% PfCRTEcu1110 control), cis-inhibition ([4]; PfCRTEcu1110 oocytes, [test solute] = 1 mM): 100 ± 3.2 % PfCRTEcu1110 control
- PfCRT-mediated [3H]CQ transport, cis-inhibition (% PfCRTEcu1110 control) ([4]; [test solute] = 0.5 mM, PfCRTEcu1110 oocytes, background [3H]CQ accumulation subtracted, normalised to oocyte type control): 94 ± 5.1 % PfCRTEcu1110 control
- [3H]CQ transport (% PfCRTEcu1110 control), cis-inhibition, PfCRTEcu1110 ([4]; [test solute] = 0.5 mM): 28 ± 0.5 % PfCRTEcu1110 control
- [3H]CQ transport (% PfCRTEcu1110 control), cis-inhibition, PfCRTEcu1110 ([4]; [test solute] = 1 mM): 30 ± 0.5 % PfCRTEcu1110 control
- [3H]CQ transport (% PfCRTEcu1110 control), cis-inhibition, PfCRTEcu1110 ([4]; [test solute] = 2 mM): 29 ± 0.4 % PfCRTEcu1110 control
- Uptake of [3H]CQ (% PfCRTDd2 control), cis-inhibition, PfCRTEcu1110 ([4]; [test solute] = 0.5 mM): 31 ± 1.5 % PfCRTDd2 control
- Uptake of [3H]CQ (% PfCRTDd2 control), cis-inhibition, PfCRTEcu1110 ([4]; [test solute] = 1 mM): 33 ± 1.0 % PfCRTDd2 control
- Uptake of [3H]CQ (% PfCRTDd2 control), trans-stimulation, non-expressing oocytes [5]: 2.8 ± 0.05 % PfCRTDd2 control
- Uptake of [3H]CQ (% PfCRTDd2 control), trans-stimulation, PfNT1 [6]: 2.9 ± 0.03 % PfCRTDd2 control
- Compounds that have been tested as potential co-substrates but are not required for influx of VF-6 via PfCRT into the oocyte [7]: X
- Tested as potential co-substrate but not required for influx of VF-6 via PfCRT into the oocyte [8]: X
- Tested as potential co-substrate but not required for influx of VF-6 via PfCRT into the oocyte [9]: X
